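Method: 48-hour compound exposure of cells in 96-well plates, five concentrations, linear interpolation of endpoints. At the GI50, growth is halved. The concentration for full growth arrest is given as TGI.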
Key:
Experiment in all cases: NCI tumour cell line growth inhibition, 48 h
SK-MEL-5 melanoma = system: SK-MEL-5 melanoma
MDA-N = system: MDA-N
K-562 leukemia = system: K-562 leukemia
M14 melanoma = system: M14 melanoma
HS 578T breast = system: HS 578T breast
SNB-19 CNS = system: SNB-19 CNS
MALME-3M melanoma = system: MALME-3M melanoma
BT-549 breast = system: BT-549 breast
OVCAR-3 ovarian = system: OVCAR-3 ovarian
PC-3 prostate = system: PC-3 prostate

SMILES	TGI (SK-MEL-5 melanoma) [µM]	TGI (MDA-N) [µM]	TGI (K-562 leukemia) [µM]	TGI (M14 melanoma) [µM]	TGI (HS 578T breast) [µM]	TGI (SNB-19 CNS) [µM]	TGI (MALME-3M melanoma) [µM]	TGI (BT-549 breast) [µM]	TGI (OVCAR-3 ovarian) [µM]	TGI (PC-3 prostate) [µM]	GI50 (SK-MEL-5 melanoma) [nM]	GI50 (PC-3 prostate) [nM]	GI50 (K-562 leukemia) [nM]	GI50 (M14 melanoma) [nM]	GI50 (HS 578T breast) [nM]	GI50 (SNB-19 CNS) [µM]	GI50 (BT-549 breast) [nM]	GI50 (OVCAR-3 ovarian) [nM]
Cc1ccc(C(=O)c2[nH]c(Nc3cc(C)ccn3)c(C(=S)Nc3ccccc3)c2N)cc1	> 100	> 100	> 100	> 100	> 100	> 100	> 100	> 100	> 100									
Cc1ccsc1C(=S)Nc1ccc(Cl)c(C(=O)OC(C(C)C)C(C)C)c1	33	> 100	> 100	> 100	> 100	91.7		61.4	33.5	61.8								
Cc1cc(C)nc(NS(=O)(=O)c2ccc(Nc3c4ccccc4nc4c(C(=O)N5CCN(CCOS(C)(=O)=O)CC5)ccc(Cl)c34)cc2)n1	> 100		> 100	> 100		> 100	> 100		> 100									
CCC1(CC)C(=O)NC(=S)N=C1N			> 100	> 100		> 100	> 100		> 100									
CCNC(=S)N/N=C/c1ccccn1	19.9	> 100	> 100	32.7	> 100	> 100	> 100	87.6		> 100								
COc1cc2c(cc1O)CC[n+]1cc3c(OC)c(OC)ccc3cc1-2	> 100	> 100	> 100	> 100	> 100	> 100	> 100	> 100	> 100	> 100								
NC(=S)N=Nc1c(O)cc(Nc2ccc(Cl)cc2Cl)c2ccccc12	95.8	> 100		> 100		88.6		97.5	54.4									
O=C(/C=C1\C[C@H]2C=Nc3ccccc3C(=O)N2C1)NCCCCCNC(=O)/C=C1\C[C@H]2C=Nc3ccccc3C(=O)N2C1	> 51	21.5	> 51.9	12.1	> 67.6	31.1	7.09	26	14.2	27.1								
Cc1cc(C)nc(NS(=O)(=O)c2ccc(Nc3c4ccccc4nc4c(C(=O)NCCO)cccc34)cc2)n1	36.6	69.6	> 100	65	> 100	> 100	28.7	34	> 100	> 100								
O=C(NCCCNCCCCNCCCNC(=O)C(F)(F)F)C(F)(F)F	> 100	> 100		> 100	> 100		> 100	> 100	> 100	> 100								
c1ccc(-c2ccc(N=NN3CCCC3)cc2)cc1	> 100	> 100	> 100	> 100	> 100	> 100		> 100	> 100	> 100								
CCN(C(=O)N[C@H](C(=O)N[C@@H](C)C(=O)OC)C(C)C)c1ccccc1	> 100	> 100	> 100	> 100	> 100	> 100	55.9	> 100	> 100	> 100								
O=c1oc2ccccc2c2nc3ccccc3cc12	> 100	> 100	> 100	> 100	66.7	70.3	> 100	> 100		> 100								
C=C1CC=CC(C)(C)C1C/C=C(\C)C(O)CBr (centres undefined)	> 100	> 100	> 100	> 100	> 100	> 100		> 100		> 100								
Nc1nc(Nc2ccc(OCc3cccc(F)c3)cc2)c2c(n1)[nH]c1ccc(O)cc12	15.2		6.65	4.77	6.29	21.7		4.01	3.46	14.7	4170	3710	2660	2120	2410	4.4	1880	1890
C/C(=N\Nc1nc2ccccc2s1)c1cccnn1	> 100	> 100	> 100	88.7	44.1	> 100		60	> 100	> 100								
COc1cc2c(cc1OCCCOc1cc3c(cc1OC)C(=O)N1CCC[C@H]1CN3)N=C[C@@H]1CCCN1C2=O			0.483	0.24		> 100	0.268	10.3	0.342	8.4								
CCOC(=O)c1c(NC(=S)Nc2ccc(C)cc2)sc2c1CCN(C)C2	> 100	> 100	> 100	> 100	> 100	> 100		> 100	> 100	> 100								
COC(=O)c1sc2ncc3c(c2c1N)CC(C)CC3 (centres undefined)	> 100	> 100	> 100	> 100		> 100	> 100	> 100	> 100	> 100								
N#CC(C#N)=Cc1cccc(Oc2ccccc2)c1	36.6		> 95.4	40.4		59.4	43.4		72									
OC(c1ccco1)C(F)(F)c1nc2ccccc2o1 (centres undefined)	> 100		> 100	> 100	> 100	> 100		> 100		> 100								
COC(=O)/C(=N\NC(=S)NN)C(C(=O)C(=O)Nc1ccccc1C(N)=O)c1nc2ccccc2[nH]c1=O (centres undefined)	> 100		> 100	> 100		> 100	> 100											
O=C1c2c(c3c4ccc(Br)cc4oc3c3[nH]c4ccccc4c23)C(=O)N1O	3.27		> 100			> 100				> 100	1480	1300	2070			2.14		
